In US8557839B2, “Fused ring azadecalin glucocorticoid receptor modulators” (Corcept Therapeutics, Inc., priority 2004, dated 2013):

What was measured:
glucocorticoid receptors [1] = target: T1, glucocorticoid receptors (Homo sapiens, UniProt P04150); assay: Glucocorticoid receptor binding displacement assay with 3H-dexamethasone; design: This GR was a full-length steroid hormone receptor; host or cells: recombinant baculovirus-infected insect cells
T1 sequence (P04150 1-777): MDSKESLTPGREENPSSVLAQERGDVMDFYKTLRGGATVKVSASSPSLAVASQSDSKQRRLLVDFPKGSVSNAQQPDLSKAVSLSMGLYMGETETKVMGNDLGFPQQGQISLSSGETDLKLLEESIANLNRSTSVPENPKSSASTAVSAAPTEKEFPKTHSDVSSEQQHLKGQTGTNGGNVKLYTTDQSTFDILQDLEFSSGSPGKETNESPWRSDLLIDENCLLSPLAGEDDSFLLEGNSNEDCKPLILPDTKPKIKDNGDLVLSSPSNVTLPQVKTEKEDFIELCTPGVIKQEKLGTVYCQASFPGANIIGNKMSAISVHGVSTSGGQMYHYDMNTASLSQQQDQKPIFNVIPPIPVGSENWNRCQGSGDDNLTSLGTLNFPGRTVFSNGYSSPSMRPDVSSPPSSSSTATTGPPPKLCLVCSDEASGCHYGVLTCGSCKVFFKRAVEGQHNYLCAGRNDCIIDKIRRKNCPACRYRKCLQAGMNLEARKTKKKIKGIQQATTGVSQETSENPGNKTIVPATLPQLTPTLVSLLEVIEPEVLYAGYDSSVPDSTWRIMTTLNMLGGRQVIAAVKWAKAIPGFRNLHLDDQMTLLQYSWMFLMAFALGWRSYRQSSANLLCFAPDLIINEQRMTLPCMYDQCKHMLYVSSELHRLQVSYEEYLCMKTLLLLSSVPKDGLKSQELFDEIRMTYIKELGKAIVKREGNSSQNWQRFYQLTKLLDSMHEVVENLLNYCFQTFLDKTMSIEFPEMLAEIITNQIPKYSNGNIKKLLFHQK
Description: The source of the receptor was recombinant baculovirus-infected insect cells. This GR was a full-length steroid hormone receptor likely to be associated with heat-shock and other endogenous proteins.
For the Primary Screen, test compounds were tested at 1 μM in duplicate. These compounds were diluted from 10 mM stock in 100% DMSO. After dilution to 100 μM, 5 μl were added to 245 μl assay buffer to obtained 2 μM compound and 2% DMSO.
For the IC50 determinations, test compounds were tested at 6 concentrations in duplicate (concentration range depends on % inhibition binding that was obtained in the Primary Screen). Test compounds were diluted from 10 mM stock in 100% DMSO. The tested solutions were prepared at 2× final assay concentration in 2% DMSO/assay buffer.
All reagents and the assay plate were kept on ice during the addition of reagents. […] After the additions, the incubation mixture was mixed and incubated for 2.5 hrs at 4° C.
After 2.5 hrs incubation, unbound counts were removed with dextran coated charcoal (DCC) as follows: 25 μl of DCC solution (10% DCC in assay buffer) was added to all wells and mixed (total volume 225 μl). The plate was centrifuged at 4000 rpm for 10 minutes at 4° C. 75 μl of the supernatants (i.e.⅓ of total volume) was carefully pipetted into an optiplate. 200 μl of scintillation cocktail were added (Microscint-40, Packard Bioscience. B.V.). The plate was vigorously shaken for approx. 10 minutes and counted on Topcount.
The IC50 values were converted to Ki (the inhibition constant) using the Cheng-Prusoff equation.
Reagents: Assay buffer: 10 mM potassium phosphate buffer pH 7.6 containing 5 mM DTT, 10 mM sodium molybdate, 100 μM EDTA and 0.1% BSA.

glucocorticoid receptors [2] = target: T1, glucocorticoid receptors; assay: GR functional assay using SW1353/MMTV-5 cells (dexamethasone-induced luciferase); assay type: cell-based; design: contains endogenous glucocorticoid receptors; endogenous in cells; host or cells: SW1353/MMTV-5 (human chondrosarcoma, stably carrying the pMAMneo-Luc reporter)
Description: SW1353/MMTV-5 is an adherent human chondrosarcoma cell line that contains endogenous glucocorticoid receptors. It was transfected with a plasmid (pMAMneo-Luc) encoding firefly luciferase located behind a glucocorticoid-responsive element (GRE) derived from a viral promoter (long terminal repeat of mouse mammary tumor virus). A stable cell line SW1353/MMTV-5 was selected with geneticin, which was required to maintain this plasmid.
SW1353/MMTV-5 cells were distributed in 96-well plates and incubated in medium (without geneticin) for 24 hrs (in the absence of CO2).

[3] = Ki from IC50 by Cheng-Prusoff, 2.5 nM 3H-dexamethasone, read-out: GR Binding
[4] = SW1353/MMTV-5 cells, antagonism of 50 nM dexamethasone, luciferase, read-out: GR Functional

SMILES | Ki (glucocorticoid receptors [1]; [3]) [nM] | Ki (glucocorticoid receptors [2]; read-out: GR Functional) [nM] | Ki (glucocorticoid receptors [2]; [4]) [nM] | Ki (glucocorticoid receptors [1]) [nM] | Ki (glucocorticoid receptors [2]) [nM]
COCCOC[C@]12Cc3cnn(-c4ccc(F)cc4)c3C=C1CCN(S(=O)(=O)c1ccc(F)cc1)C2 | < 10 | < 10 | – | – | –
CN(C)C(=O)CN1CCC2=Cc3c(cnn3-c3ccc(F)cc3)CC2(Cc2ccccc2)C1 (stereo not shown) | > 100 | > 100 | – | – | –
CC(C)(C)c1ccc(S(=O)(=O)N2CCC3=Cc4c(cnn4-c4ccc(F)cc4)C[C@]3(C(=O)N3CCOCC3)C2)cc1 | 10 to 100 | > 100 | – | – | –
CCC(O)[C@]12Cc3cnn(-c4ccc(F)cc4)c3C=C1CCN(S(=O)(=O)c1ccc(C(C)(C)C)cc1)C2 (stereo partly shown) | < 10 | 10 to 100 | – | – | –
CC(C)(C)c1ccc(S(=O)(=O)N2CCC3=Cc4c(cnn4-c4ccccn4)C[C@]3(C)C2)cc1 | 10 to 100 | – | – | – | –
O=S(=O)(c1ccc(N2CCOCC2)cc1)N1CCC2=Cc3[nH]ncc3CC2(Cc2ccccc2)C1 (stereo not shown) [drawing 246] | < 10 | > 100 | – | – | –
C=CCNC[C@]12Cc3cnn(-c4ccc(F)cc4)c3C=C1CCN(S(=O)(=O)c1ccc(C(C)(C)C)cc1)C2 | < 10 | 10 to 100 | – | – | –
CN(C)C[C@]12Cc3cnn(-c4ccc(F)cc4)c3C=C1CCN(S(=O)(=O)c1ccccc1)C2 | < 10 | 10 to 100 | – | – | –
CCCCn1ncc2c1C=C1CCN(S(=O)(=O)c3ccc(C)cc3)C[C@@]1(CN1CCCCC1)C2 | 10 to 100 | – | – | – | –
CC(C)(C)c1ccc(S(=O)(=O)N2CCC3=Cc4c(cnn4Cc4ccccc4)CC3(Cc3ccccc3)C2)cc1 (stereo not shown) [drawing 237] | < 10 | > 100 | – | – | –
Fc1ccc(-n2ncc3c2C=C2CCN(Cc4ccncc4)CC2(Cc2ccccc2)C3)cc1 (stereo not shown) | 10 to 100 | > 100 | – | – | –
CC(C)(C)c1ccc(S(=O)(=O)N2CCC3=Cc4c(cnn4-c4ccc(C#N)cc4)CC3(Cc3ccccc3)C2)cc1 (stereo not shown) [drawing 239] | < 10 | 10 to 100 | – | – | –
CCN(CC)C[C@]12Cc3cnn(-c4ccc(F)cc4)c3C=C1CCN(S(=O)(=O)c1ccccc1)C2 | < 10 | 10 to 100 | – | – | –
CC(C)(C)c1ccc(S(=O)(=O)N2CC[C@H]3Cc4c(cnn4-c4ccc(F)cc4)C[C@]3(CN3CCOCC3)C2)cc1 | < 10 | 10 to 100 | – | – | –
O=S(=O)(c1ccc(N2CCOCC2)cc1)N1CCC2=Cc3[nH]ncc3CC2(Cc2ccccc2)C1 (stereo not shown) [drawing 230] | < 10 | – | > 100 | – | –
CCCCn1ncc2c1C=C1CCN(S(=O)(=O)c3ccc(C(C)(C)C)cc3)C[C@@]1(C(=O)OC)C2 | 10 to 100 | > 100 | – | – | –
CC(C)(C)c1ccc(S(=O)(=O)N2CCC3=Cc4c(cnn4-c4ccc(S(N)(=O)=O)cc4)CC3(Cc3ccccc3)C2)cc1 (stereo not shown) [drawing 256] | 10 to 100 | – | > 100 | – | –
COCCOC[C@]12Cc3cnn(-c4ccc(F)cc4)c3C=C1CCN(S(=O)(=O)c1ccccc1)C2 | < 10 | < 10 | – | – | –
N#Cc1ccc(S(=O)(=O)N2CCC3=Cc4c(cnn4-c4ccc(F)cc4)C[C@]3(CN3CCOCC3)C2)cc1 | < 10 | > 100 | – | – | –
CC(C)(C)c1ccc(S(=O)(=O)N2CCC3=Cc4c(cnn4CC(F)(F)F)C[C@]3(CN3CCCC3)C2)cc1 | 10 to 100 | > 100 | – | – | –

SMILES | Ki (glucocorticoid receptors [1]; [3]) [nM] | Ki (glucocorticoid receptors [2]; read-out: GR Functional) [nM] | Ki (glucocorticoid receptors [2]; [4]) [nM] | Ki (glucocorticoid receptors [1]) [nM] | Ki (glucocorticoid receptors [2]) [nM]
O=S(=O)(N1CCCCC1)N1CCC2=Cc3c(cnn3-c3ccc(F)cc3)CC2(Cc2ccc(F)cc2)C1 (stereo not shown) | 10 to 100 | > 100 | – | – | –
CCN(CC)C[C@]12Cc3cnn(-c4ccc(F)cc4)c3C=C1CCN(S(=O)(=O)c1ccc(OC)cc1)C2 | < 10 | 10 to 100 | – | – | –
CCCCn1ncc2c1C=C1CCN(S(=O)(=O)c3ccc(C(C)(C)C)cc3)C[C@@]1(CN(C)C)C2 | 10 to 100 | > 100 | – | – | –
CC(C)(C)c1ccc(S(=O)(=O)N2CCC3=Cc4c(cnn4-c4ccc(F)cc4)CC3(Cc3ccc(F)cc3)C2)cc1 (stereo not shown) | – | – | – | < 10 | 10 to 100
COc1ccc(CC23Cc4cnn(-c5ccc(F)cc5)c4C=C2CCN(Cc2ccccc2)C3)cc1 (stereo not shown) [drawing 244] | < 10 | > 100 | – | – | –
COC[C@]12Cc3cnn(-c4ccc(F)cc4)c3C[C@@H]1CCN(S(=O)(=O)c1ccc(C(C)(C)C)cc1)C2 | < 10 | > 100 | – | – | –
CCCCS(=O)(=O)N1CCC2=Cc3c(cnn3-c3ccc(F)cc3)C[C@]2(COCCOC)C1 | < 10 | 10 to 100 | – | – | –
COCCOC[C@]12Cc3cnn(-c4ccc(F)cc4)c3C[C@@H]1CCN(S(=O)(=O)c1ccccc1)C2 | < 10 | 10 to 100 | – | – | –
O=S(=O)(c1ccccc1)N1CCC2=Cc3c(cnn3-c3ccc(F)cc3)C[C@]2(CO)C1 | 10 to 100 | – | – | – | –
CN(C)C[C@]12Cc3cnn(-c4ccc(F)cc4)c3C=C1CCN(S(=O)(=O)c1ccc(F)cc1)C2 | < 10 | 10 to 100 | – | – | –
O=S(=O)(c1ccccc1)N1CCC2=Cc3c(cnn3-c3ccc(F)cc3)CC2(Cc2ccc(F)cc2)C1 (stereo not shown) | < 10 | 10 to 100 | – | – | –
Cc1ccc(-n2ncc3c2C=C2CCN(S(=O)(=O)c4ccc(C(C)(C)C)cc4)C[C@@]2(Cc2ccccc2)C3)cc1 | < 10 | > 100 | – | – | –
CC(C)(C)c1ccc(S(=O)(=O)N2CCC3=Cc4c(cnn4-c4ccc(F)cc4)C[C@]3(CCN3CCCC3)C2)cc1 | 10 to 100 | 10 to 100 | – | – | –
CC(C)(C)c1ccc(S(=O)(=O)N2CCC3=Cc4c(cnn4-c4ccc(F)cc4)C[C@]3(C(O)c3ccccc3)C2)cc1 (stereo partly shown) | 10 to 100 | > 100 | – | – | –
COCCOC[C@]12Cc3cnn(C(C)C)c3C=C1CCN(S(=O)(=O)c1ccc(C(C)(C)C)cc1)C2 | < 10 | 10 to 100 | – | – | –
O=S(=O)(c1ccc(F)cc1)N1CCC2=Cc3c(cnn3-c3ccc(F)cc3)C[C@]2(CN2CCCC2)C1 | < 10 | < 10 | – | – | –
CC(C)(C)c1ccc(S(=O)(=O)N2CCC3=Cc4c(cnn4-c4ccc(C(F)(F)F)cc4)CC3(Cc3ccccc3)C2)cc1 (stereo not shown) [drawing 254] | 10 to 100 | – | – | – | –
CC(C)(C)c1ccc(S(=O)(=O)N2CCC3=Cc4c(cnn4-c4ccc(C(F)(F)F)cc4)CC3(Cc3ccccc3)C2)cc1 (stereo not shown) [drawing 238] | 10 to 100 | – | – | – | –
O=S(=O)(c1ccccn1)N1CCC2=Cc3c(cnn3-c3ccc(F)cc3)C[C@]2(CN2CCOCC2)C1 | < 10 | – | – | – | –
CC(C)(C)c1ccc(S(=O)(=O)N2CCC3=Cc4c(cnn4Cc4cccc(O)c4)CC3(Cc3ccccc3)C2)cc1 (stereo not shown) [drawing 257] | > 100 | – | – | – | –
